# According to patent publication US9833497B2, “Human originated EGF domain proteins and use of the same” (CHENGDU SOURCEBIO LIMITED-LIABILITY COMPANY, priority 2013, dated 2017):
# Tests used:
# Format in all cases: cell-based
# E. coli DH5α = test: Antibacterial activity: MIC and growth curve against E. coli DH5α in 96-well plate; conditions: minimal inhibitory concentration against E. coli DH5α; 96-well plate, 5×10^5 CFU/mL, 37° C., judged after 8 h
# How it was run: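 Log-phase DH5α (OD600 about 0.5, 37° C, 185 rpm in LB) was pelleted, resuspended in fresh LB and seeded at 5×10^5 CFU/mL with recombinant protein at 50, 25 and 12.5 μg/mL (two-fold series), in triplicate. Plates were shaken at 175 rpm, 37° C, and OD600 was read every 30 min. MIC was the lowest concentration with no growth.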
# E. coli BL21 = test: MIC against Gram-negative bacteria: E. coli BL21; conditions: for MIC against E. coli BL21 / MIC (μg/mL) E. coli BL21: 5×10^5 CFU/mL
# How it was run: (§1)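 LB broth cultures at McFarland 0.5, spun down, resuspended, diluted to 5×10^5 CFU/mL final. Two-fold serial dilutions of purified human EGF domain proteins, triplicate. 37° C, 175 rpm shaking. Endpoint: no visible growth.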
# Pseudomonas aeruginosa = test: MIC against Gram-negative bacteria: Pseudomonas aeruginosa; conditions: for MIC against P. aeruginosa / MIC (μg/mL) P. aeruginosa: 5×10^5 CFU/mL
# How it was run: as §1
# Klebsiella pneumonia = test: MIC against Gram-negative bacteria: Klebsiella pneumonia; conditions: for MIC against K. pneumonia / MIC (μg/mL) K. pneumonia: 5×10^5 CFU/mL
# How it was run: as §1
# Enterobacter cloacae = test: MIC against Gram-negative bacteria: Enterobacter cloacae; conditions: for MIC against E. cloacae / MIC (μg/mL) E. cloacae: 5×10^5 CFU/mL
# How it was run: as §1
# Aeromonas hydrophila = test: MIC against Gram-negative bacteria: Aeromonas hydrophila; conditions: for MIC against A. hydrophila / MIC (μg/mL) A. hydrophila: 5×10^5 CFU/mL
# How it was run: as §1
# Citrobacter diversus = test: MIC against Gram-negative bacteria: Citrobacter diversus; conditions: for MIC against C. diversus / MIC (μg/mL) C. diversus: 5×10^5 CFU/mL
# How it was run: as §1
# Moraxella catarrhalis = test: MIC against Gram-negative bacteria: Moraxella catarrhalis; conditions: for MIC against M. catarrhalis / MIC (μg/mL) M. catarrhalis: 5×10^5 CFU/mL
# How it was run: as §1
# Proteus mirabilis = test: MIC against Gram-negative bacteria: Proteus mirabilis; conditions: for MIC against P. mirabilis / MIC (μg/mL) P. mirabilis: 5×10^5 CFU/mL
# How it was run: as §1
# Proteus vulgaris = test: MIC against Gram-negative bacteria: Proteus vulgaris; conditions: for MIC against P. vulgaris / MIC (μg/mL) P. vulgaris: 5×10^5 CFU/mL
# How it was run: as §1
# Serratia marcescens = test: MIC against Gram-negative bacteria: Serratia marcescens; conditions: for MIC against S. marcescens / MIC (μg/mL) S. marcescens: 5×10^5 CFU/mL
# How it was run: as §1
# [1] = E. coli BL21, 10 h cultivation at 37° C.
# [2] = P. aeruginosa, 10 h cultivation at 37° C.
# [3] = K. pneumonia, 10 h cultivation at 37° C.
# [4] = E. cloacae, 10 h cultivation at 37° C.
# [5] = A. hydrophila, 10 h cultivation at 37° C.
# [6] = C. diversus, 10 h cultivation at 37° C.
# [7] = M. catarrhalis, 10 h cultivation at 37° C.
# [8] = P. mirabilis, 10 h cultivation at 37° C.
# [9] = P. vulgaris, 10 h cultivation at 37° C.
# [10] = S. marcescens, 10 h cultivation at 37° C.
# [11] = E. coli BL21, 96-well plate, 37° C., 10 h
# [12] = Pseudomonas aeruginosa, 96-well plate, 37° C., 10 h
# [13] = Klebsiella pneumonia, 96-well plate, 37° C., 10 h
# [14] = Enterobacter cloacae, 96-well plate, 37° C., 10 h
# [15] = Aeromonas hydrophila, 96-well plate, 37° C., 10 h
# [16] = Citrobacter diversus, 96-well plate, 37° C., 10 h
# [17] = Moraxella catarrhalis, 96-well plate, 37° C., 10 h
# [18] = Proteus mirabilis, 96-well plate, 37° C., 10 h
# [19] = Proteus vulgaris, 96-well plate, 37° C., 10 h
# [20] = Serratia marcescens, 96-well plate, 37° C., 10 h
substance,measurement,setting,value
PRT488 (DRCQLQTRCQNGGQWDGLKCQCPSTFYGSSCE; listed as Homo sapiens),MIC,E. coli DH5α,50 µg/mL
same,MIC against E. coli BL21,"E. coli BL21; 96-well plate, 37° C., 10 h",12.5 µg/mL
same,MIC against P. aeruginosa,"Pseudomonas aeruginosa; 96-well plate, 37° C., 10 h",50 µg/mL
same,MIC against K. pneumonia,"Klebsiella pneumonia; 96-well plate, 37° C., 10 h",12.5 µg/mL
same,MIC against E. cloacae,"Enterobacter cloacae; 96-well plate, 37° C., 10 h",50 µg/mL
same,MIC against A. hydrophila,"Aeromonas hydrophila; 96-well plate, 37° C., 10 h",12.5 µg/mL
same,MIC against C. diversus,"Citrobacter diversus; 96-well plate, 37° C., 10 h",50 µg/mL
same,MIC against M. catarrhalis,"Moraxella catarrhalis; 96-well plate, 37° C., 10 h",12.5 µg/mL
same,MIC against P. mirabilis,"Proteus mirabilis; 96-well plate, 37° C., 10 h",50 µg/mL
same,MIC against P. vulgaris,"Proteus vulgaris; 96-well plate, 37° C., 10 h",12.5 µg/mL
same,MIC against S. marcescens,"Serratia marcescens; 96-well plate, 37° C., 10 h",50 µg/mL
PRT205 (SAHVCSQQCSGHGVCDSRNKCHCSPGYKPPNCQ; listed as Homo sapiens),MIC,E. coli DH5α,12.5 µg/mL
same,MIC (μg/mL) E. coli BL21,E. coli BL21; [1],12.5 µg/mL
same,MIC (μg/mL) P. aeruginosa,Pseudomonas aeruginosa; [2],12.5 µg/mL
same,MIC (μg/mL) K. pneumonia,Klebsiella pneumonia; [3],25 µg/mL
same,MIC (μg/mL) E. cloacae,Enterobacter cloacae; [4],12.5 µg/mL
same,MIC (μg/mL) A. hydrophila,Aeromonas hydrophila; [5],25 µg/mL
same,MIC (μg/mL) C. diversus,Citrobacter diversus; [6],12.5 µg/mL
same,MIC (μg/mL) M. catarrhalis,Moraxella catarrhalis; [7],25 µg/mL
same,MIC (μg/mL) P. mirabilis,Proteus mirabilis; [8],12.5 µg/mL
same,MIC (μg/mL) P. vulgaris,Proteus vulgaris; [9],25 µg/mL
same,MIC (μg/mL) S. marcescens,Serratia marcescens; [10],12.5 µg/mL
PRT1385 (GVRSCPGDCNQRGRCEDGRCVCWPGYTGTDC; listed as Homo sapiens),MIC,E. coli DH5α,12.5 µg/mL
same,MIC against E. coli BL21,E. coli BL21; [1],50 µg/mL
same,MIC against P. aeruginosa,"Pseudomonas aeruginosa; Pseudomonas aeruginosa, 10 h cultivation at 37° C.",12.5 µg/mL
same,MIC against K. pneumonia,"Klebsiella pneumonia; Klebsiella pneumonia, 10 h cultivation at 37° C.",50 µg/mL
same,MIC against E. cloacae,"Enterobacter cloacae; Enterobacter cloacae, 10 h cultivation at 37° C.",12.5 µg/mL
same,MIC against A. hydrophila,"Aeromonas hydrophila; Aeromonas hydrophila, 10 h cultivation at 37° C.",50 µg/mL
same,MIC against C. diversus,"Citrobacter diversus; Citrobacter diversus, 10 h cultivation at 37° C.",12.5 µg/mL
same,MIC against M. catarrhalis,"Moraxella catarrhalis; Moraxella catarrhalis, 10 h cultivation at 37° C.",50 µg/mL
same,MIC against P. mirabilis,"Proteus mirabilis; Proteus mirabilis, 10 h cultivation at 37° C.",12.5 µg/mL
same,MIC against P. vulgaris,"Proteus vulgaris; Proteus vulgaris, 10 h cultivation at 37° C.",25 µg/mL
same,MIC against S. marcescens,"Serratia marcescens; Serratia marcescens, 10 h cultivation at 37° C.",50 µg/mL
PRT966 (PSHPCAHEPCSHGICYDAPGGFRCVCEPGWSGPRCS; listed as Homo sapiens),MIC,E. coli DH5α,50 µg/mL
same,MIC,E. coli BL21; [1],12.5 µg/mL
same,MIC,Pseudomonas aeruginosa; [2],50 µg/mL
same,MIC,Klebsiella pneumonia; [3],25 µg/mL
same,MIC,Enterobacter cloacae; [4],12.5 µg/mL
same,MIC,Aeromonas hydrophila; [5],50 µg/mL
same,MIC,Citrobacter diversus; [6],25 µg/mL
same,MIC,Moraxella catarrhalis; [7],12.5 µg/mL
same,MIC,Proteus mirabilis; [8],50 µg/mL
same,MIC,Proteus vulgaris; [9],25 µg/mL
same,MIC,Serratia marcescens; [10],12.5 µg/mL
PRT1253 (WPRQCPCLVDGARYWPGQRIKADCQLCICQDGRPRRCR; listed as Homo sapiens),MIC,E. coli DH5α,50 µg/mL
same,MIC against E. coli BL21,E. coli BL21; [11],12.5 µg/mL
same,MIC against P. aeruginosa,Pseudomonas aeruginosa; [12],50 µg/mL
same,MIC against K. pneumonia,Klebsiella pneumonia; [13],25 µg/mL
same,MIC against E. cloacae,Enterobacter cloacae; [14],12.5 µg/mL
same,MIC against A. hydrophila,Aeromonas hydrophila; [15],50 µg/mL
same,MIC against C. diversus,Citrobacter diversus; [16],25 µg/mL
same,MIC against M. catarrhalis,Moraxella catarrhalis; [17],12.5 µg/mL
same,MIC against P. mirabilis,Proteus mirabilis; [18],25 µg/mL
same,MIC against P. vulgaris,Proteus vulgaris; [19],50 µg/mL
same,MIC against S. marcescens,Serratia marcescens; [20],25 µg/mL
PRT63 (GCNFNNGGCHQDCFEGGDGSFLCGCRPGFRLLDDLVTCA; listed as Homo sapiens),MIC,E. coli DH5α,12.5 µg/mL
same,MIC (μg/mL) E. coli BL21,E. coli BL21; [11],25 µg/mL
same,MIC (μg/mL) P. aeruginosa,Pseudomonas aeruginosa; [12],12.5 µg/mL
same,MIC (μg/mL) K. pneumonia,Klebsiella pneumonia; [13],25 µg/mL
same,MIC (μg/mL) E. cloacae,Enterobacter cloacae; [14],12.5 µg/mL
same,MIC (μg/mL) A. hydrophila,Aeromonas hydrophila; [15],25 µg/mL
same,MIC (μg/mL) C. diversus,Citrobacter diversus; [16],12.5 µg/mL
same,MIC (μg/mL) M. catarrhalis,Moraxella catarrhalis; [17],25 µg/mL
same,MIC (μg/mL) P. mirabilis,Proteus mirabilis; [18],12.5 µg/mL
same,MIC (μg/mL) P. vulgaris,Proteus vulgaris; [19],25 µg/mL
same,MIC (μg/mL) S. marcescens,Serratia marcescens; [20],12.5 µg/mL
